pIC50: −log10 of the molar value.
Columns and labels:
[1] = target: T1, Catalytic domains of human DNMT 3a/3L enzyme (Homo sapiens, UniProt Q9Y6K1); experiment: DNMT inhibition assay (3H-SAM filter plate scintillation), DNMT 3a/3L; format: biochemical; conditions: Poly(dIdC) DNA 0.002 mg/mL, H3 SAM 500 nM, 30 min pre-incubation without SAM, 37° C. 1 h; read-out: DNMT 3a/3I IC50
T1 construct: Catalytic domains of human DNMT 3a/3L enzyme were produced by Accelagen; purchased Accelagen
Description: (§1) Catalytic domains of human DNMT 3a/3L enzyme were produced by Accelagen. Human full-length DNMT1 enzyme purchased from BPS Biosciences. Poly(dldC) DNA (Sigma) was used at 0.002 mg/mL. H3 SAM (Perkin Elmer) was used at 500 nM. DNA, DNMT enzyme, and inhibitors were mixed with assay buffer (20 mM Tris pH8, 5% glycerol, 1 mM EDTA, 100 μg/mL BSA, 1 mM DTT, 50 mM NaCl) and pre-incubated without SAM for 30 min. H3 SAM was then added to initiate the methylation reaction which continues at 37° C. for 1 h. Reaction mixture was then transferred to a filter plate (Millipore Multiscreen HTS DE), then washed with 50 mM H2PO4 and 95% Ethanol. Scintillation counts were measured on the Perkin Elmer Microbeta scintillation counter.

[2] = target: T2, Human full-length DNMT1 enzyme (Homo sapiens, UniProt P26358); experiment: DNMT inhibition assay (3H-SAM filter plate scintillation), DNMT1; format: biochemical; conditions: Poly(dIdC) DNA 0.002 mg/mL, H3 SAM 500 nM, 30 min pre-incubation without SAM, 37° C. 1 h
T2 construct: Human full-length DNMT1 enzyme purchased from BPS Biosciences; purchased BPS Biosciences
Description: as §1

T1 sequence (Q9Y6K1 634-912 limits assumed): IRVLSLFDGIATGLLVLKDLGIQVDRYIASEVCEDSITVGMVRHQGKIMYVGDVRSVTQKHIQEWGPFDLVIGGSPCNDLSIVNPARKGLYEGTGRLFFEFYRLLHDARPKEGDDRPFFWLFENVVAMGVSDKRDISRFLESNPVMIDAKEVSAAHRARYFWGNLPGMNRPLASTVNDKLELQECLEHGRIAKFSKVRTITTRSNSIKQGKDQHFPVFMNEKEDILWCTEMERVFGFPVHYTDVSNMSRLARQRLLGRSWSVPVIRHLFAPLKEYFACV
T1 sequence (Q9UJW3 178-386 partner limits assumed): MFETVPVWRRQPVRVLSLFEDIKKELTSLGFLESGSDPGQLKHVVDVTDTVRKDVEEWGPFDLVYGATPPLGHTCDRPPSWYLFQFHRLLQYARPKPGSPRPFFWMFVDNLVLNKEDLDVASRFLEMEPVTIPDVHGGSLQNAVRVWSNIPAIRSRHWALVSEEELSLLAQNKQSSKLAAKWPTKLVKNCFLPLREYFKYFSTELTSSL
T2 sequence (P26358 whole entry): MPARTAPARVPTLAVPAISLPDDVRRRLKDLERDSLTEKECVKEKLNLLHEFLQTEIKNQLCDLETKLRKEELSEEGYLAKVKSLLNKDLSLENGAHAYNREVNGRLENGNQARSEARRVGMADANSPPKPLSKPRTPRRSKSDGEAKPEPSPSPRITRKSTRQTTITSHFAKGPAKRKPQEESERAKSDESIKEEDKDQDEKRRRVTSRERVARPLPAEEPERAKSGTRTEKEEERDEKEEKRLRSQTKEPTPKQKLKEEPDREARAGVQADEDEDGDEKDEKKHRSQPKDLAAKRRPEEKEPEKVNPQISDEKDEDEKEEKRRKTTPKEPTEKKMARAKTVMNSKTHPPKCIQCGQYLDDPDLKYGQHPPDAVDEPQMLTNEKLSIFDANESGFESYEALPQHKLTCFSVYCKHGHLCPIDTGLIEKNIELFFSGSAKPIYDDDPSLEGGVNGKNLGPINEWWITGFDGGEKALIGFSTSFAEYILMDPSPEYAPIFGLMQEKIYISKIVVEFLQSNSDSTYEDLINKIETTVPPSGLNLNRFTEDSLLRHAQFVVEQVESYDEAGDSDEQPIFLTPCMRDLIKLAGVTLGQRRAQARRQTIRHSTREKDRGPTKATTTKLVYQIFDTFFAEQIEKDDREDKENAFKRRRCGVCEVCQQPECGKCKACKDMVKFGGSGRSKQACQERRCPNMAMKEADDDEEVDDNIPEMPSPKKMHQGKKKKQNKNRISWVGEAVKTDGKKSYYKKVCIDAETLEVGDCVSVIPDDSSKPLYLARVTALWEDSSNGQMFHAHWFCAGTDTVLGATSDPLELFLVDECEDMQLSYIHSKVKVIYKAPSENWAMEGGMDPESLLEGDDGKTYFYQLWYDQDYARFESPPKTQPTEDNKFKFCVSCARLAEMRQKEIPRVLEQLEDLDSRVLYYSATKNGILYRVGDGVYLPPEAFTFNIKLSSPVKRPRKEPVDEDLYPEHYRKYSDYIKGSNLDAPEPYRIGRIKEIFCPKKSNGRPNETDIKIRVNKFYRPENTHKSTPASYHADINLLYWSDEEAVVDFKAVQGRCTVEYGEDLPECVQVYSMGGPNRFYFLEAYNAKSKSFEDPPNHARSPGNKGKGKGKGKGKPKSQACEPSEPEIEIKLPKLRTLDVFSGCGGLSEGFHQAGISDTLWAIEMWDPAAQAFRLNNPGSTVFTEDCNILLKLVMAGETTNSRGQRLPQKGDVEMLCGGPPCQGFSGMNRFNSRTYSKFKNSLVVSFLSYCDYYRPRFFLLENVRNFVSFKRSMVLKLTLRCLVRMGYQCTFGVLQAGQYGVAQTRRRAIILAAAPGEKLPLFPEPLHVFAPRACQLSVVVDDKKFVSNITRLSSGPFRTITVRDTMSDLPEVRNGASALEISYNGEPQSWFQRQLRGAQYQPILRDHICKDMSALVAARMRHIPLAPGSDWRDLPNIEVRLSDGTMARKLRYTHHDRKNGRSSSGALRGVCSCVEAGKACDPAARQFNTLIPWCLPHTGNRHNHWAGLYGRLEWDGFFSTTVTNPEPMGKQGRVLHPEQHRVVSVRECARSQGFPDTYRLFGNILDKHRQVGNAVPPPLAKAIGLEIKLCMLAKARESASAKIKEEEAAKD

Compound	pIC50 [1]	pIC50 [2]
Nc1ncnc2c1ncn2[C@H]1O[C@@H](CSCCNc2ccnc(Cl)n2)[C@H](O)[C@@H]1O [Example 2, (2S,3S,4R,5R)-2-(6-Amino-9H-purin-9-yl)-5-(((2-((2-chloropyrimidin-4-yl)amino)ethyl)thio)methyl)tetrahydrofuran-3,4-diol]	4.02	–
Nc1ncnc2c1ncn2[C@H]1O[C@@H](CSCCNc2ccncn2)[C@H](O)[C@@H]1O [Example 3, (2S,3S,4R,5R)-2-(6-Amino-9H-purin-9-yl)-5-(((2-(pyrimidin-4-ylamino)ethyl)thio)methyl)tetrahydrofuran-3,4-diol]	4.59	–
Nc1ncnc2c1ncn2[C@H]1O[C@@H](CSCCNc2cc(Cl)ncn2)[C@H](O)[C@@H]1O [Example 4]	4.22	4.32

Stronger by pIC50 [1], values ahead:

pIC50 [1]	pIC50 [2]	Compound
4.62	4.31	C=CC(=O)NCCSC[C@@H]1O[C@H](n2cnc3c(N)ncnc32)[C@@H](O)[C@H]1O [Example 5, N-(2-((((2R,3R,4S,5S)-5-(6-Amino-9H-purin-9-yl)-3,4-di hydroxytetrahydrofuran-2-yl)methyl)thio)ethyl)acrylamide]
5.52	< 3.52	Nc1ncnc2c1ncn2[C@H]1O[C@@H](CSCCNc2nccc(Cl)n2)[C@H](O)[C@@H]1O [Example 1, (2S,3S,4R,5R)-2-(6-Amino-9H-purin-9-yl)-5-(((2-((4-chloropyrimidin-2-yl)amino)ethyl)thio)methyl)tetrahydrofuran-3,4-diol]
